# Literature values in patent publication US6235268A, “Antiplaque oral composition and method” (Colgate-Palmolive Company, priority 2000, dated 2001).
# Tested on: rats
# Conditions: Merck Index, Eleventh Ed., 1989
smiles,measurement,value
COc1ccc(C(=O)c2ccccc2)c(O)c1 [2-hydroxy-4-methoxybenzophenone],LD-50 (oral/rats),12800 mg/kg
